According to patent US12497406B2, “Microbiocidal derivatives” (SYNGENTA CROP PROTECTION AG, priority 2019, dated 2025):

How the values were obtained:
Pyrenophora teres = Pyrenophora teres / barley / leaf disc preventative (net blotch); type: in vivo; details: foliar, barley leaf segments cv. Hasso, inoculated 2 days after application, compared to untreated control
Procedure: Example B10. Pyrenophora teres/Barley/Leaf Disc Preventative (Net Blotch) Barley leaf segments cv. Hasso are placed on agar in a multiwell plate (24-well format) and sprayed with the formulated test compound diluted in water. The leaf segments are inoculated with a spore suspension of the fungus 2 days after application. The inoculated leaf segments are incubated at 20° C. and 65% rh under a light regime of 12 h light/12 h darkness in a climate cabinet and the activity of a compound is assessed as disease control compared to untreated when an appropriate level of disease damage appears in untreated check leaf segments (5-7 days after application). […] […]-25, and P-26.

[1] = tested on: Monographella nivalis (Microdochium nivale); assay: Monographella nivalis (Microdochium nivale) / liquid culture (foot rot cereals); type: cell-based; details: liquid culture (PDB), growth inhibition photometrically 4-5 days after application, compared to untreated control
Procedure: (§1) Example B6. Monographella nivalis (Microdochium nivale)/Liquid Culture (Foot Rot Cereals) Conidia of the fungus from cryogenic storage are directly mixed into nutrient broth (PDB potato dextrose broth). After placing a (DMSO) solution of test compound into a microtiter plate (96-well format), the nutrient broth containing the fungal spores is added. The test plates are incubated at 24° C. and the inhibition of growth is determined photometrically 4-5 days after application. […] […]-25, and P-26.

[2] = tested on: Mycosphaerella arachidis (Cercospora arachidicola); assay: Mycosphaerella arachidis (Cercospora arachidicola) / liquid culture (early leaf spot); type: cell-based; details: liquid culture (PDB), growth inhibition photometrically 4-5 days after application, compared to untreated control
Procedure: Example B7. Mycosphaerella arachidis (Cercospora arachidicola)/Liquid Culture (Early Leaf Spot) Conidia of the fungus from cryogenic storage are directly mixed into nutrient broth (PDB potato dextrose broth). After placing a (DMSO) solution of test compound into a microtiter plate (96-well format), the nutrient broth containing the fungal spores is added. The test plates are incubated at 24° C. and the inhibition of growth is determined photometrically 4-5 days after application. […] […]-22, and P-25.

[3] = tested on: Mycosphaerella graminicola (Septoria tritici); assay: Mycosphaerella graminicola (Septoria tritici) / liquid culture (Septoria blotch); type: cell-based; details: Zymoseptoria tritici, liquid culture (PDB), growth inhibition photometrically 4-5 days after application, compared to untreated control
Procedure: (§2) Example B11. Mycosphaerella graminicola (Septoria tritici)/Liquid Culture (Septoria Blotch) Conidia of the fungus from cryogenic storage are directly mixed into nutrient broth (PDB potato dextrose broth). After placing a (DMSO) solution of test compound into a microtiter plate (96-well format), the nutrient broth containing the fungal spores is added. The test plates are incubated at 24° C. and the inhibition of growth is determined photometrically 4-5 days after application.

[4] = tested on: Glomerella lagenarium (Colletotrichum lagenarium); assay: Glomerella lagenarium (Colletotrichum lagenarium) / liquid culture (anthracnose); type: cell-based; details: Colletotrichum orbiculare, liquid culture (PDB), growth inhibition photometrically 3-4 days after application, compared to untreated control
Procedure: as §1, with “B3. Glomerella lagenarium (Colletotrichum lagenarium)/Liquid” for “B6. Monographella nivalis (Microdochium nivale)/Liquid”, “(Anthracnose)” for “(Foot Rot Cereals)”, “measured” for “determined”, “3-4” for “4-5”

Alternaria solani = Alternaria solani / tomato / leaf disc (early blight); type: in vivo; details: foliar, tomato leaf disks cv. Baby, inoculated 2 days after application, compared to untreated control
Procedure: Example B1. Alternaria solani/Tomato/Leaf Disc (Early Blight) Tomato leaf disks cv. Baby are placed on agar in multiwell plates (24-well format) and sprayed with the formulated test compound diluted in water. The leaf disks are inoculated with a spore suspension of the fungus 2 days after application. The inoculated leaf disks are incubated at 23° C./21° C. […] […]-24, and P-25.

[5] = tested on: Puccinia recondita f. sp. tritici; assay: Puccinia recondita f. sp. tritici / wheat / leaf disc preventative (brown rust); type: in vivo; details: foliar, wheat leaf segments cv. Kanzler, inoculated 1 day after application, compared to untreated control
Procedure: Example B8. Puccinia recondita f. Sp. tritici/Wheat/Leaf Disc Preventative (Brown Rust) Wheat leaf segments cv. Kanzler are placed on agar in multiwell plates (24-well format) and sprayed with the formulated test compound diluted in water. The leaf disks are inoculated with a spore suspension of the fungus 1 day after application. The inoculated leaf segments are incubated at 19° C. and 75% rh under a light regime of 12 h light/12 h darkness in a climate cabinet and the activity of a compound is assessed as percent disease control compared to untreated when an appropriate level of disease damage appears in untreated check leaf segments (7-9 days after application). […] […]-25, and P-26.

[6] = tested on: Magnaporthe grisea (Pyricularia oryzae); assay: whole plant or invertebrate; type: in vivo; details: foliar, read-out: control of Magnaporthe grisea
[7] = tested on: Botryotinia fuckeliana (Botrytis cinerea); assay: Botryotinia fuckeliana (Botrytis cinerea) / liquid culture (gray mould); type: cell-based; details: 20 ppm; liquid culture (Vogels broth), growth inhibition photometrically 3-4 days after application; compared to untreated control
Procedure: as §2, with “B2. Botryotinia fuckeliana (Botrytis cinerea)/Liquid” for “B11. Mycosphaerella graminicola (Septoria tritici)/Liquid”, “(Gray Mould)” for “(Septoria Blotch)”, “(Vogels” for “(PDB potato dextrose”, “3-4” for “4-5”, “application. […] P-22.” for “application.”

SMILES | pest or weed control at 200 ppm (Pyrenophora teres) [%] | inhibition of growth at 20 ppm [1] [%] | inhibition of growth at 20 ppm [2] [%] | inhibition of growth at 20 ppm [3] [%] | inhibition of growth at 20 ppm [4] [%] | pest or weed control at 200 ppm (Alternaria solani) [%] | pest or weed control at 200 ppm [5] [%] | pest or weed control at 200 ppm [6] [%] | control of Botryotinia fuckeliana [7]
CC1(C)CCC1NC(=O)c1nc(Nc2cccc(F)c2)cc2c1OCO2 (centres unmarked) [Compound P-8, N-(2,2-dimethylcyclobutyl)-6-(3-fluoroanilino)-[1,3]dioxolo[4,5-c]pyridine-4-carboxamide] | ≥ 80 | ≥ 80 | ≥ 80 | ≥ 80 | ≥ 80 | ≥ 80 | ≥ 80 |  | 
CC(C)(C)NC(=O)c1nc(Nc2cc(F)cc(F)c2)cc2c1OCO2 [Compound P-21, N-tert-butyl-6-(3,5-difluoroanilino)-[1,3]dioxolo[4,5-c]pyridine-4-carboxamide] | ≥ 80 | ≥ 80 | ≥ 80 | ≥ 80 | ≥ 80 | ≥ 80 | ≥ 80 | ≥ 80 | 
CC1(NC(=O)c2nc(Nc3cc(F)cc(F)c3)cc3c2OCO3)CCCC1 [Compound P-25, 6-(3,5-difluoroanilino)-N-(1-methylcyclopentyl)-[1,3]dioxolo[4,5-c]pyridine-4-carboxamide] | ≥ 80 | ≥ 80 | ≥ 80 | ≥ 80 | ≥ 80 | ≥ 80 | ≥ 80 | ≥ 80 | 
CC1(NC(=O)c2nc(Nc3cc(F)cc(F)c3)cc3c2OCO3)CCC1 [Compound P-22, 6-(3,5-difluoroanilino)-N-(1-methylcyclobutyl)-[1,3]dioxolo[4,5-c]pyridine-4-carboxamide] | ≥ 80 | ≥ 80 | ≥ 80 | ≥ 80 | ≥ 80 | ≥ 80 | ≥ 80 | ≥ 80 | at least 80%
